# Data from US20140275281A1, “Geranylgeranyl acetone and derivatives thereof for intranasal administration” (COYOTE PHARMACEUTICALS, INC., priority 2013, published 2014).
# Assay: pharmacological activity of GGA isomers (test not described)
# Conditions: at low concentrations; statement in words only, no data given
compound,measurement,value
"CC(=O)CC/C=C(/C)CC/C=C(\C)CC/C=C(\C)CCC=C(C)C (single isomer, unassigned) [cis-isomer of GGA, 5Z, 9E, 13E geranylgeranyl acetone]",pharmacological activity,at best of minimal activity
"CC(=O)CC/C=C(\C)CC/C=C(\C)CC/C=C(\C)CCC=C(C)C (single isomer, unassigned) [trans-isomer of GGA, trans-GGA]",pharmacological activity,pharmacologically active
